Measured values as given in US4337760A, “Method for the treatment of tumors with β-glucuronidase activity dependent pharmaceuticals” (Schwimmer; Adolf, priority 1979, dated 1982).

Key:
[1] = alkaline vs acid pH; cited from earlier work
[2] = Acute intravenous toxicity to rabbits, full scale test; assay type: in vivo, NZW rabbits; details: for acute median lethal intravenous dose (LD 50): 10% solution, 95% confidence limits, method of Weil
Experimental: (§1) NZW rabbits in the weight range of 2,000 to 3,200 g for females and 2,200 to 3,800 g for males were injected intravenously with mandelonitrile β-D-glucuronic acid solution. Rabbits injected with saline alone served as the control. The mandelonitrile β-D-glucuronic acid solution contained 10% mandelonitrile.
(§2) During the 14 day observation period a record was kept of all mortalities and signs of toxicity.
Dosing was then extended to larger groups of rabbits (5 males and 5 females per group) in order to locate the median lethal dose more precisely.
All the deaths of all the groups occurred within 3 hours after dosing.
The acute median lethal intravenous dose (LD 50) and its 95% confidence limints calculated by the method of Weil, C. S., 1952, Biometrics, 8:249, to rabbits of mandelonitrile-β-D-glucuronic acid 10% solution are calculated to be: […]

[3] = Acute intravenous toxicity to rabbits, range finding screen; assay type: in vivo, NZW rabbits; details: i.v.; for Mortality ratio: 14 day observation
Experimental: as §1, §2

trophoblastic cells = details: reported; cited from earlier work
β-glucuronidase [4] = details: cited from earlier work
β-glucuronidase [5] = assay: Incubation with β-glucuronidase; assay type: biochemical
Experimental: The free acid form of the compound was formed by treating the 2,4-dinitrophenyl-methyl(tri-O-acetyl-β-D-glucopyranosyl bromide)-uronate with a one-half molar amount of barium hydroxide to produce the barium salt. This barium salt of the glucuronide precipitates as a white amorphous material. An equimolar solution of H2 SO4 releases the free glucuronide. Distillation of the supernatant yielded bright yellow-brown crystals having a melting point of 179°-180° C.

[6] = in vivo; cited from earlier work

## Cc1cc(O)cc(C)c1Cl [4-chloro-3,5-xylanol]
[1]
  pH-dependent solubility: water soluble at alkaline pH's and lipid-soluble at acid pH's

## N#CC(O[C@@H]1O[C@H](C(=O)O)[C@@H](O)[C@H](O)[C@H]1O)c1ccccc1 (stereo partly drawn) [mandelonitrile β-D-glucuronic acid, Mandelonitrile β-D-glucuronic acid]
[2]; all groups, i.v.
  Time of all the deaths of all the groups after dosing: ≤ 3 h
[2]; believed, from the rabbit data
  maximum safe dose: ~0.44 ml/kg body weight
[2]; females
  acute median lethal intravenous dose (LD 50): 0.6873 (0.6442-0.7304) ml/kg body weight
[2]; females, i.v., 0.44 ml/kg
  Mortality ratio: 0/5
[2]; females, i.v., 0.66 ml/kg
  Mortality ratio: 2/5
  Time of death after dosing: No of hours: < 3 h
  Time of death after dosing: No. of animals: 2 animals
[2]; females, i.v., 1.0 ml/kg
  Mortality ratio: 5/5
  Time of death after dosing: No of hours: < 3 h
  Time of death after dosing: No. of animals: 5 animals
[2]; females, i.v., 1.5 ml/kg
  Mortality ratio: 5/5
  Time of death after dosing: No of hours: < 3 h
  Time of death after dosing: No. of animals: 5 animals
[2]; females, i.v., 2.25 ml/kg
  Mortality ratio: 5/5
  Time of death after dosing: No of hours: < 3 h
  Time of death after dosing: No. of animals: 5 animals
[2]; following 14 days
  Clinical symptoms of surviving animals: did not show any clinical symptoms
[2]; gross pathology
  Autopsy of all animals: did not show clear gross pathological changes
[2]; males
  acute median lethal intravenous dose (LD 50): 0.8419 (0.7809-0.9029) ml/kg body weight
[2]; males, i.v., 0.44 ml/kg
  Mortality ratio: 0/5
[2]; males, i.v., 0.66 ml/kg
  Mortality ratio: 2/5
  Time of death after dosing: No of hours: < 3 h
  Time of death after dosing: No. of animals: 2 animals
[2]; males, i.v., 1.0 ml/kg
  Mortality ratio: 3/5
  Time of death after dosing: No of hours: < 3 h
  Time of death after dosing: No. of animals: 3 animals
[2]; males, i.v., 1.5 ml/kg
  Mortality ratio: 4/5
  Time of death after dosing: No of hours: < 3 h
  Time of death after dosing: No. of animals: 4 animals
[2]; males, i.v., 2.25 ml/kg
  Mortality ratio: 5/5
  Time of death after dosing: No of hours: < 3 h
  Time of death after dosing: No. of animals: 5 animals
[2]; observed 2 minutes after dosing, i.v.
  Signs of reaction to treatment: ataxia and paralysis
[2]; two minutes after the signs of reaction, high dose group
  Early deaths: a few animals of the high dose group died
[3]; 0.25 ml/kg
  Mortality ratio: 0/2
[3]; 0.5 ml/kg
  Mortality ratio: 1/2
[3]; 1.0 ml/kg
  Mortality ratio: 2/2
[3]; 2.0 ml/kg
  Mortality ratio: 2/2
[3]; 4.0 ml/kg
  Mortality ratio: 2/2
[3]; rabbits, preliminary range finding
  median lethal intravenous dose (LD-50): 0.23-2 ml per kg body weight

## C[C@]12CC[C@H]3[C@@H](CCC4=CC(=O)CC[C@@]43C)[C@@H]1CC[C@@H]2O [testosterone]
Trophoblastic cells
  β-glucuronidase activity in trophoblastic cells: induce β-glucuronidase activity

## Oc1c(I)cc(Cl)c2cccnc12 [5-chloro-7-iodo-8-quinolinol]
[1]
  pH-dependent solubility: water soluble at alkaline pH's and lipid-soluble at acid pH's

## N#C[C@H](O[C@@H]1O[C@H](CO[C@@H]2O[C@H](CO)[C@@H](O)[C@H](O)[C@H]2O)[C@@H](O)[C@H](O)[C@H]1O)c1ccccc1 [amygdalin]
β-glucuronidase [4]
  splitting by the enzyme β-glucuronidase: cannot be split

## O=C(O)[C@H]1O[C@@H](Oc2ccc([N+](=O)[O-])cc2[N+](=O)[O-])[C@H](O)[C@@H](O)[C@@H]1O [2,4-dinitrophenol-β-D-glucuronic acid]
β-glucuronidase [5]
  product on incubation with β-glucuronidase: produced 2,4-dinitrophenol

## Neomycin
[6]
  known adverse effect: cannot be administered internally because of its toxicity
